The values that follow come from patent US20140377324A1, “Pharmaceutical Composition Comprising miRNA-100 And Its Use In The Modulation of Blood Vessel Growth and Endothelial Inflammation” (Universitatsklinikum Freiburg, priority 2009, published 2014).

The subject of the test is miR-100. The test can be described thus: miR-100 expression in endothelial cells after cytokine, inhibitor or statin exposure (stem loop Taqman PCR). It is filed as cell-based, human. To be noted: for miR-100 expression: endothelial cells exposed to cytokine, TNF-α 10 ng/ml for different time points (FIG. 16A). The source says:
MicoRNA expression was validated by quantitative stem-loop PCR technology (TaqMan MicroRNA Assays, Applied Biosystems, Foster City, Calif.). The use of target-specific reverse transcription primers and TaqMan hybridization probes allows the specific detection of mature microRNAs. MicroRNA expression was normalized to the expression of the small RNAs rnu19 and rnu48.
To search for possible inducers of miR-100 downregulation in endothelial cells, several pro-angiogenic or pro-arteriogenic cytokines were screened for effects on miR-100 expression.
FIG. 16 [A]: Human endothelial cells were stimulated 10 ng/ml TNF-α for different time points. RNA was isolated and quantified using Taqman based Stem loop PCR.
FIG. 16 [B]: The NF-kappaB inhibitor PS1145 (10 μM) was added to TNF-α stimulated (10 ng/ml) human endothelial cells and the miR-100 expression level, compared to controls without PS1145, were measured using Stem loop Taqman PCR.
Human endothelial cells were stimulated with 1 μM Simvastatin for 48 h.
Background: Quantitative PCR measures a nucleic acid by following its amplification.

“Also recorded” adds a separate entry of the source.

For the compound VEGF, the miR-100 expression entry was “no sustained and reproducible effect”.
As to `O=C(Nc1cc(Cl)cc2c1[nH]c1cnccc12)c1cccnc1` [PS1145, reference compound], the “TNF-alpha effect on miR-100 expression” value (PS1145 10 μM, TNF-α 10 ng/ml, human endothelial cells, FIG. 16B) is “abrogated the TNF-alpha effect; also recorded: attenuates the regulatory effect of TNF-alpha on miR-100 levels”.
TNF-alpha: the miR-100 expression entry is recorded as “significant downregulation of miR-100”. For the same compound, for the setting “listed as Tumor necrosis factor (TNF)-alpha”, the miR-100 expression result is on record as “sustained downregulation of miR-100”. Moreover, the “dose dependency of miR-100 decrease” value (endothelial cells, TNF-alpha concentrations tested) is “trend for a more pronounced decrease of miR-100 expression with higher doses”.
In the case of “TGF-beta1: pro-angiogenic or pro-arteriogenic cytokine”, the miR-100 expression entry is “no sustained and reproducible effect”.
Same read-out and setting: the same measure for “FGF2: pro-angiogenic or pro-arteriogenic cytokine”: “no sustained and reproducible effect”.
